US12133907B2, “Lipophilic third generation retinoid” (Actera Ingredients, Inc., priority 2021, dated 2024)
Like-named read-outs stand apart in the source and are kept apart here.

Experiments:
[1] = cited from earlier work
[2] = Dissolution of lauryl adapalene in MCT oil (caprylic/capric triglyceride) and persistence of the solution; format: physicochemical
Method: Approximately 5 grams of lauryl adapalene solids were dissolved in 95 grams of liquid MCT oil (caprylic/capric triglyceride), by heating the mixture to 60° C. for fifteen minutes.

[3] = Adapalene oleyl ester dissolved in squalane (premix properties); format: physicochemical; conditions: for physical form of the premix in squalane: 20% by weight in squalane
Text: The adapalene ester can be formulated in a premix composition with a non-polar lipophilic carrier at even higher concentrations of the adapalene ester. Typically, the concentration of the adapalene ester in the premix composition will be at least about 10% by weight, and the weight ratio of adapalene ester to lipophilic carrier is from about 1:9 to about 3:7. The premix composition may in the form of a homogeneous liquid solution or single phase amorphous solid.
Adapalene oleyl ester was dissolved in squalane at a concentration of 20% by weight. […] Rather, the entire premix mass formed a soft amorphous solid paste. The concentrated 20% adapalene oleyl ester in squalane remains a single homogenous soft solid paste with a melting temperature range of 30-35° C. This is a suitable temperature range for use in the manufacturing of finished cosmetics, which are usually manufactured at 30-80° C. This 20% composition can itself melt when in contact with the skin (33° C.). A combination of adapalene oleyl ester with squalane at high concentration, minimum 20%, provides an advantageous skin beauty treatment that can target acne prone skin with 20% or more adapalene ester, which is not possible with highly insoluble pure adapalene.

COc1ccc(-c2ccc3cc(C(=O)O)ccc3c2)cc1C12CC3CC(CC(C3)C1)C2 [Adapalene, 6-(3-(1-adamantyl)-4-methoxyphenyl)-2-naphthoic acid]
solubility in ethanol [1]: sparingly soluble
solubility in oil or water [1]: not oil or water soluble
solubility in oil or water ([1]; listed as adapalene): insoluble in oil or water

CCCCCCCCCCCCOC(=O)c1ccc2cc(-c3ccc(OC)c(C45CC6CC(CC(C6)C4)C5)c3)ccc2c1 [lauryl adapalene]
time the solution remained in liquid form ([2]; 5% wt/wt solution in MCT oil, room temperature): more than one week
concentration of active agent dissolved in liquid MCT oil ([2]; 5 g solids in 95 g MCT oil, heated to 60° C. for fifteen minutes): 5 % wt/wt

CCCCCCCC/C=C\CCCCCCCCOC(=O)c1ccc2cc(-c3ccc(OC)c(C45CC6CC(CC(C6)C4)C5)c3)ccc2c1 [Adapalene oleyl ester, adapalene oleyl ester]
physical form of the premix in squalane [3]: formed a homogenous amorphous solid
physical form of the premix in squalane ([3]; listed as adapalene C18-1 ester): forms a homogenous amorphous solid
concentration dissolved in squalane ([3]; squalane premix): 20 % by weight
